Test results from patent publication US20240336622A1 (The Board of Regents of The University of Texas System, priority 2021, published 2024).

system: UWB1 cells; experiment: cells; settings: read-out: IC50 (μM) UWB1 cells

Row | Structure (SMILES) | IC50 [µM]
1 | C=C1[C@H](O[C@@H]2C[C@@H](c3ccoc3)C(C)=C2I)[C@@H]2OC(=O)[C@]3(C)C=CC(=O)[C@@](C)([C@@H]23)[C@H]1CC(=O)OC [S-26] | 0.226
2 | CC[Si](CC)(CC)O[C@H]1C(=O)[C@H](CC(=O)OC)[C@@]2(C)C(=O)C=C[C@@]3(C)C(=O)O[C@@H]1[C@H]23 [S-39] | 1.18
3 | COC(=O)C[C@H]1[C@]2(C)C3=C(C)[C@H](c4ccc(O[Si](C)(C)C(C)(C)C)cc4)C[C@H]3O[C@@H]2[C@@H]2OC(=O)[C@]3(C)C=CC(=O)[C@@]1(C)[C@@H]23 [S-117] | 0.0788
4 | COC(=O)C[C@H]1[C@@H]2CC3=C(C)[C@H](c4ccc(O[Si](C)(C)C(C)(C)C)cc4)C[C@H]3O[C@@H]2[C@@H]2OC(=O)[C@]3(C)C=CC(=O)[C@@]1(C)[C@@H]23 [S-118] | 0.0815
5 | COC(=O)C[C@H]1[C@@H]2CC3=C(C)[C@H](c4ccc(O[Si](C)(C)C(C)(C)C)cc4)C[C@@H]3O[C@@H]2[C@@H]2OC(=O)[C@]3(C)C=CC(=O)[C@@]1(C)[C@@H]23 [S-119] | 0.188
6 | COC(=O)C[C@H]1[C@@H]2CC3=C(C)[C@@H](c4ccc(O[Si](C)(C)C(C)(C)C)cc4)C[C@H]3O[C@@H]2[C@@H]2OC(=O)[C@]3(C)C=CC(=O)[C@@]1(C)[C@@H]23 [S-121] | 0.19
7 | COC(=O)C[C@H]1[C@@H]2CC3=C(C)[C@@H](c4ccc(O[Si](C)(C)C(C)(C)C)cc4)C[C@@H]3O[C@@H]2[C@@H]2OC(=O)[C@]3(C)C=CC(=O)[C@@]1(C)[C@@H]23 [S-122] | 0.0534
8 | COC(=O)C[C@H]1[C@@H]2CC3=C(C)[C@H](c4ccccc4O[Si](C)(C)C(C)(C)C)C[C@@H]3O[C@@H]2[C@@H]2OC(=O)[C@]3(C)C=CC(=O)[C@@]1(C)[C@@H]23 [S-127] | 0.927
9 | COC(=O)C[C@H]1[C@]2(C)C3=C(C)[C@H](c4ccccc4O[Si](C)(C)C(C)(C)C)C[C@H]3O[C@@H]2[C@@H]2OC(=O)[C@]3(C)C=CC(=O)[C@@]1(C)[C@@H]23 [S-128] | 0.0908
10 | COC(=O)C[C@H]1[C@@H]2CC3=C(C)[C@H](c4ccccc4O[Si](C)(C)C(C)(C)C)C[C@H]3O[C@@H]2[C@@H]2OC(=O)[C@]3(C)C=CC(=O)[C@@]1(C)[C@@H]23 [S-129] | 0.163
11 | COC(=O)C[C@H]1[C@]2(C)C3=C(C)[C@H](c4ccc(CO[Si](C)(C)C(C)(C)C)cc4)C[C@H]3O[C@@H]2[C@@H]2OC(=O)[C@]3(C)C=CC(=O)[C@@]1(C)[C@@H]23 [S-146] | 0.18
12 | COC(=O)C[C@H]1[C@@H]2CC3=C(C)[C@H](c4ccc(CO[Si](C)(C)C(C)(C)C)cc4)C[C@@H]3O[C@@H]2[C@@H]2OC(=O)[C@]3(C)C=CC(=O)[C@@]1(C)[C@@H]23 [S-147] | 0.192
13 | COC(=O)C[C@H]1[C@]2(C)C3=C(C)[C@@H](c4ccc(CO[Si](C)(C)C(C)(C)C)cc4)C[C@H]3O[C@@H]2[C@@H]2OC(=O)[C@]3(C)C=CC(=O)[C@@]1(C)[C@@H]23 [S-148] | 0.161
14 | COC(=O)C[C@H]1[C@@H]2CC3=C(C)[C@@H](c4ccc(CO[Si](C)(C)C(C)(C)C)cc4)C[C@@H]3O[C@@H]2[C@@H]2OC(=O)[C@]3(C)C=CC(=O)[C@@]1(C)[C@@H]23 [S-149] | 0.163

same assay, conditions: read-out: IC50 (μM) UWB1 cells, UWB1 cell viability

Row | Structure (SMILES) | IC50 [µM]
15 | COC(=O)C[C@H]1[C@]2(C)C3=C(C)[C@H](c4ccoc4-c4ccc(O[Si](C)(C)C(C)(C)C)cc4)C[C@H]3O[C@@H]2[C@@H]2OC(=O)[C@]3(C)C=CC(=O)[C@@]1(C)[C@@H]23 [S-46] | 0.089
16 | C=C1[C@H](O[C@H]2CCC(C)=C2I)[C@@H]2OC(=O)[C@]3(C)C=CC(=O)[C@@](C)([C@@H]23)[C@H]1CC(=O)OC [S-84] | 0.183
17 | COC(=O)C[C@H]1[C@]2(C)C3=C(C)[C@H](c4ccc(O)cc4)C[C@H]3O[C@@H]2[C@@H]2OC(=O)[C@]3(C)C=CC(=O)[C@@]1(C)[C@@H]23 [S-123] | 0.464
18 | COC(=O)C[C@H]1[C@]2(C)C3=C(C)[C@H](c4ccc(OC(=O)C(C)(C)C)cc4)C[C@H]3O[C@@H]2[C@@H]2OC(=O)[C@]3(C)C=CC(=O)[C@@]1(C)[C@@H]23 [S-124] | 0.564
19 | COC(=O)C[C@H]1[C@@H]2CC3=C(C)[C@H](c4ccc(OC(=O)C(C)(C)C)cc4)C[C@@H]3O[C@@H]2[C@@H]2OC(=O)[C@]3(C)C=CC(=O)[C@@]1(C)[C@@H]23 [S-126] | 0.141
20 | COC(=O)C[C@H]1[C@@H]2CC3=C(C)[C@H](c4ccc(OS(=O)(=O)C(F)(F)F)cc4)C[C@@H]3O[C@@H]2[C@@H]2OC(=O)[C@]3(C)C=CC(=O)[C@@]1(C)[C@@H]23 [S-130] | 0.225
21 | COC(=O)C[C@H]1[C@]2(C)C3=C(C)[C@H](C4=CCOC4=O)C[C@H]3O[C@@H]2[C@@H]2OC(=O)[C@]3(C)C=CC(=O)[C@@]1(C)[C@@H]23 [S-131] | 1.18
22 | COC(=O)C[C@H]1[C@]2(C)C3=C(C)[C@H](c4ccc(-c5cc(C(C)(C)C)cc(C(C)(C)C)c5)cc4)C[C@H]3O[C@@H]2[C@@H]2OC(=O)[C@]3(C)C=CC(=O)[C@@]1(C)[C@@H]23 [S-132] | 0.142
23 | COC(=O)C[C@H]1[C@@H]2CC3=C(C)[C@H](c4ccc(-c5cc(C(C)(C)C)cc(C(C)(C)C)c5)cc4)C[C@H]3O[C@@H]2[C@@H]2OC(=O)[C@]3(C)C=CC(=O)[C@@]1(C)[C@@H]23 [S-133] | 0.186
24 | COC(=O)C[C@H]1[C@@H]2CC3=C(C)[C@H](c4ccc(-c5cc(C(C)(C)C)cc(C(C)(C)C)c5)cc4)C[C@@H]3O[C@@H]2[C@@H]2OC(=O)[C@]3(C)C=CC(=O)[C@@]1(C)[C@@H]23 [S-134] | 0.091
25 | COC(=O)C[C@H]1[C@]2(C)C3=C(C)[C@@H](c4ccc(-c5cc(C(C)(C)C)cc(C(C)(C)C)c5)cc4)C[C@H]3O[C@@H]2[C@@H]2OC(=O)[C@]3(C)C=CC(=O)[C@@]1(C)[C@@H]23 [S-135] | 0.185
26 | COC(=O)C[C@H]1[C@@H]2CC3=C(C)[C@@H](c4ccc(-c5cc(C(C)(C)C)cc(C(C)(C)C)c5)cc4)C[C@H]3O[C@@H]2[C@@H]2OC(=O)[C@]3(C)C=CC(=O)[C@@]1(C)[C@@H]23 [S-136] | 0.0934
27 | COC(=O)C[C@H]1[C@@H]2CC3=C(C)[C@@H](c4ccc(-c5cc(C(C)(C)C)cc(C(C)(C)C)c5)cc4)C[C@@H]3O[C@@H]2[C@@H]2OC(=O)[C@]3(C)C=CC(=O)[C@@]1(C)[C@@H]23 [S-137] | 0.169
28 | COC(=O)C[C@H]1[C@@H]2CC3=C(C)[C@@H](c4ccc(OS(=O)(=O)c5c(C)cc(C)cc5C)cc4)C[C@@H]3O[C@@H]2[C@@H]2OC(=O)[C@]3(C)C=CC(=O)[C@@]1(C)[C@@H]23 [S-139] | 0.14
29 | COC(=O)C[C@H]1[C@@H]2CC3=C(C)[C@@H](c4ccc(OS(=O)(=O)c5ccc(C)cc5)cc4)C[C@@H]3O[C@@H]2[C@@H]2OC(=O)[C@]3(C)C=CC(=O)[C@@]1(C)[C@@H]23 [S-140] | 0.119
30 | COC(=O)C[C@H]1[C@]2(C)C3=C(C)[C@H](c4ccc(C(C)(C)C)cc4)C[C@H]3O[C@@H]2[C@@H]2OC(=O)[C@]3(C)C=CC(=O)[C@@]1(C)[C@@H]23 [S-141] | 0.248
31 | COC(=O)C[C@H]1[C@@H]2CC3=C(C)[C@H](c4ccc(C(C)(C)C)cc4)C[C@@H]3O[C@@H]2[C@@H]2OC(=O)[C@]3(C)C=CC(=O)[C@@]1(C)[C@@H]23 [S-142] | 0.145
32 | COC(=O)C[C@H]1[C@@H]2CC3=C(C)[C@H](c4ccc(C(C)(C)C)cc4)C[C@H]3O[C@@H]2[C@@H]2OC(=O)[C@]3(C)C=CC(=O)[C@@]1(C)[C@@H]23 [S-143] | 0.238
33 | COC(=O)C[C@H]1[C@@H]2CC3=C(C)[C@@H](c4ccc(C(C)(C)C)cc4)C[C@@H]3O[C@@H]2[C@@H]2OC(=O)[C@]3(C)C=CC(=O)[C@@]1(C)[C@@H]23 [S-144] | 0.14
34 | COC(=O)C[C@H]1[C@]2(C)C3=C(C)[C@@H](c4ccc(C(C)(C)C)cc4)C[C@H]3O[C@@H]2[C@@H]2OC(=O)[C@]3(C)C=CC(=O)[C@@]1(C)[C@@H]23 [S-145] | 0.157
35 | COC(=O)C[C@H]1[C@@H]2CC3=C(C)[C@@H](c4ccc(CO)cc4)C[C@@H]3O[C@@H]2[C@@H]2OC(=O)[C@]3(C)C=CC(=O)[C@@]1(C)[C@@H]23 [S-150] | 0.351
36 | COC(=O)C[C@H]1[C@@H]2CC3=C(C)[C@@H](c4ccc(C=O)cc4)C[C@@H]3O[C@@H]2[C@@H]2OC(=O)[C@]3(C)C=CC(=O)[C@@]1(C)[C@@H]23 [S-151] | 0.766
37 | COC(=O)C[C@H]1[C@@H]2CC3=C(C)[C@@H](c4ccc(C(=O)O)cc4)C[C@@H]3O[C@@H]2[C@@H]2OC(=O)[C@]3(C)C=CC(=O)[C@@]1(C)[C@@H]23 [S-152] | 2.88
38 | COC(=O)C[C@H]1[C@@H]2CC3=C(C)[C@@H](c4ccc(C(=O)NC(C)(C)C)cc4)C[C@@H]3O[C@@H]2[C@@H]2OC(=O)[C@]3(C)C=CC(=O)[C@@]1(C)[C@@H]23 [S-153] | 0.245
39 | CC1=C2[C@@H](C[C@H]1c1ccoc1)O[C@@H]1[C@@H]3OC(=O)[C@]4(C)C=CC(=O)[C@](C)([C@@H](CC(=O)OC(C)(C)C)[C@]21C)[C@@H]34 [S-154] | 0.453
40 | CC1=C2C[C@@H]3[C@H](O[C@@H]2C[C@H]1c1ccoc1)[C@@H]1OC(=O)[C@]2(C)C=CC(=O)[C@@](C)([C@@H]12)[C@H]3CC(=O)OC(C)(C)C [S-155] | 0.306
41 | C=C1[C@H](O)[C@@H]2OC(=O)[C@]3(C)C=CC(=O)[C@@](C)([C@@H]23)[C@H]1CC(=O)OC(C)(C)C [S-156] | 3.65

system: PARP1; experiment: PARP1 trapping activity of nimbolide analogs (FIGS. 19, 20); type: cell-based; settings: FIG. 19

Row | Structure (SMILES) | trapping activity compared to nimbolide
42 | COC(=O)C[C@H]1[C@]2(C)C3=C(C)[C@H](c4ccoc4-c4ccc(O[Si](C)(C)C(C)(C)C)cc4)C[C@H]3O[C@@H]2[C@@H]2OC(=O)[C@]3(C)C=CC(=O)[C@@]1(C)[C@@H]23 [S-46] | more potent trapping activity

same assay, conditions: FIGS. 19 and 20

Row | Structure (SMILES) | PARP1 trapping by nimbolide analogs
43 | C=C1[C@H](O[C@@H]2C[C@@H](c3ccoc3)C(C)=C2I)[C@@H]2OC(=O)[C@]3(C)C=CC(=O)[C@@](C)([C@@H]23)[C@H]1CC(=O)OC [S-26] | induce profound PARP1 trapping
44 | CC[Si](CC)(CC)O[C@H]1C(=O)[C@H](CC(=O)OC)[C@@]2(C)C(=O)C=C[C@@]3(C)C(=O)O[C@@H]1[C@H]23 [S-39] | induce PARP1 trapping
45 | COC(=O)C[C@H]1[C@]2(C)C3=C(C)[C@H](c4ccoc4-c4ccc(O[Si](C)(C)C(C)(C)C)cc4)C[C@H]3O[C@@H]2[C@@H]2OC(=O)[C@]3(C)C=CC(=O)[C@@]1(C)[C@@H]23 [S-46] | induce PARP1 trapping
46 | C=C1[C@H](O[C@H]2CCC(C)=C2I)[C@@H]2OC(=O)[C@]3(C)C=CC(=O)[C@@](C)([C@@H]23)[C@H]1CC(=O)OC [S-84] | induce profound PARP1 trapping

system: UWB1, A673, Fadu, H2058, H1048, MDA-MB-468 cells; experiment: Cytotoxicity in cancer cell lines with different genetic background (cell titer glo); type: cell-based; settings: 1 μM for 96 hours
Source text: Cells were then subjected to cell titer glo analysis. Data represent mean±SEM.

Row | Structure (SMILES) | sensitivity of cell lines (UWB1, A673, Fadu, H2058, H1048, MDA-MB-468)
47 | O=C(c1cc(Cc2n[nH]c(=O)c3ccccc23)ccc1F)N1CCN(C(=O)C2CC2)CC1 [Olaparib, olaparib] | different degrees of sensitivity

system: UWB1 cells; experiment: not given; settings: not given

Row | Structure (SMILES) | cytotoxicity against UWB1 cells
48 | COC(=O)C[C@H]1[C@]2(C)C3=C(C)[C@H](c4ccoc4-c4ccc(O[Si](C)(C)C(C)(C)C)cc4)C[C@H]3O[C@@H]2[C@@H]2OC(=O)[C@]3(C)C=CC(=O)[C@@]1(C)[C@@H]23 [S-46] | excellent cytotoxicity

same assay, conditions: read-out: IC50 (μM) UWB1 cells, UWB1 cell viability

Row | Structure (SMILES) | IC50 [µM]
49 | COC(=O)C[C@H]1[C@]2(C)C3=C(C)[C@H](C4=CC(=O)OC4OC(C)=O)C[C@H]3O[C@@H]2[C@@H]2OC(=O)[C@]3(C)C=CC(=O)[C@@]1(C)[C@@H]23 (stereo partly shown) [S-51] | 0.954
